Laboratory results from patent publication US11034694B2, “Substituted isoindolin-1-ones and 2,3-dihydro-1H-pyrrolo[3,4-c]pyridin-1-ones as HPK1 antagonists” (Nimbus Saturn, Inc., priority 2019, dated 2021).

Target: HPK1 (Homo sapiens (Human), UniProt Q92918)
Test: HPK1 biochemical enzyme assay (microfluidic mobility shift assay)
Conditions: 1 mM ATP; 1.5 nM HPK1; 30 min preincubation, 60 min reaction; Caliper EZ Reader; read-out: HPK1 1000UMATP caliper IC50
Procedure: HPK1 biochemical enzyme assay: HPK1 enzyme inhibition was measured using a microfluidic mobility shift assay. […] Test compounds were titrated in ten point curves (top final assay concentration 3 μM), and preincubated with enzyme/substrate mix for 30 min prior to initiation of the reaction by addition of ATP (1 mM final concentration) and substrate (1 μM final concentration; Carna Biosciences) diluted in assay buffer supplemented by MgCl2 (final assay concentration of 5 mM). Following 60 min incubation at RT, the reaction was terminated by addition of 60 μl/well termination buffer (Carna Biosciences) and signal determination using a Caliper EZ Reader (Perkin Elmer, UK).

HPK1, sequence (Q92918 whole entry): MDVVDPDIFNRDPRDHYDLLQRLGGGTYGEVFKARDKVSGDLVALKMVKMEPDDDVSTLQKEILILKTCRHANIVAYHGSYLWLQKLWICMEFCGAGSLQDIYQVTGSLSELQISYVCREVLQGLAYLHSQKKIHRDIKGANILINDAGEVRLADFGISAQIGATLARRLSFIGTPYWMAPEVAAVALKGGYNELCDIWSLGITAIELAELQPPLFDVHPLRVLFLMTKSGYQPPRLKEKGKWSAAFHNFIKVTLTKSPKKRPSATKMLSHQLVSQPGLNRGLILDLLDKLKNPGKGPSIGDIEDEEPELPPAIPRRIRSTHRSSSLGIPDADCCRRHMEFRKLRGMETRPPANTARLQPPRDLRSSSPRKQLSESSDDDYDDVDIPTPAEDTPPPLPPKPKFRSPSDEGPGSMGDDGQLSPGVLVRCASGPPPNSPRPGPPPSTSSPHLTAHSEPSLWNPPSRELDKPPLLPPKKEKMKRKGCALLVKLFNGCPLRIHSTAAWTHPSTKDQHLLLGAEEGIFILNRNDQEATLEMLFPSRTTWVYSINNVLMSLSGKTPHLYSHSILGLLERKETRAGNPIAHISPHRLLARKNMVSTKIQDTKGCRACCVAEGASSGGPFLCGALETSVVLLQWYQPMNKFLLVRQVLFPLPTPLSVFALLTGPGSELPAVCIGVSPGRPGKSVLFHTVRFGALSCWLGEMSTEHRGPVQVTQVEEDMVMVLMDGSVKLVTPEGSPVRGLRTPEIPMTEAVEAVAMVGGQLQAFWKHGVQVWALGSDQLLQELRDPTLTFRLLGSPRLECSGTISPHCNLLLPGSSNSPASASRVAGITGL

Q: How did the IC50 turn out when `O=C1NCc2c(-c3cnc4cc(F)ccn34)ccc(Nc3ccc(N4CC5CCC(C4)C5O)cn3)c21` (stereo not shown) [I-405, 4-(7-fluoroimidazo [1,2-a]pyridin-3-yl)-7-((5-(8-hydroxy-3-azabicyclo [3.2.1]octan-3-yl)pyridin-2-yl)amino)isoin-dolin-1-one] was run?
A: Its IC50 is under 100 nM.
